Measurements published in the NIST ThermoML archive (doi:10.1021/je300632p).
± gives the expanded uncertainty stated by the source.

Assay: xn = mol fraction of the nth substance listed
Conditions: 101 kPa, Liquid; for viscosity: Falling or rolling sphere viscometry; for mass density: Vibrating tube method

CCCCO [butan-1-ol] + CCO
Conditions | mass density [kg/m3] | viscosity [mPa·s]
293.15 K, x2 = 0 | 809.02 ± 0.12 | 3.066 ± 0.065
293.15 K, x2 = 0.1 | 807.8 ± 0.12 | 2.693 ± 0.057
293.15 K, x2 = 0.2 | 806.38 ± 0.12 | 2.494 ± 0.053
293.15 K, x2 = 0.3 | 804.85 ± 0.12 | 2.242 ± 0.048
293.15 K, x2 = 0.4 | 803.63 ± 0.12 | 2.048 ± 0.044
293.15 K, x2 = 0.501 | 801.61 ± 0.12 | 1.897 ± 0.04
293.15 K, x2 = 0.602 | 799.54 ± 0.12 | 1.725 ± 0.037
293.15 K, x2 = 0.701 | 797.38 ± 0.12 | 1.574 ± 0.033
293.15 K, x2 = 0.801 | 795.11 ± 0.12 | 1.445 ± 0.031
293.15 K, x2 = 0.9 | 792.58 ± 0.12 | 1.301 ± 0.028
298.15 K, x2 = 0 | 805.24 ± 0.12 | 2.534 ± 0.054
298.15 K, x2 = 0.1 | 803.98 ± 0.12 | 2.376 ± 0.051
298.15 K, x2 = 0.2 | 802.53 ± 0.12 | 2.214 ± 0.047
298.15 K, x2 = 0.3 | 800.97 ± 0.12 | 1.993 ± 0.042
298.15 K, x2 = 0.4 | 799.71 ± 0.12 | 1.826 ± 0.039
298.15 K, x2 = 0.501 | 797.65 ± 0.12 | 1.705 ± 0.036
298.15 K, x2 = 0.602 | 795.54 ± 0.12 | 1.55 ± 0.033
298.15 K, x2 = 0.701 | 793.33 ± 0.12 | 1.414 ± 0.03
298.15 K, x2 = 0.801 | 790.98 ± 0.12 | 1.302 ± 0.028
298.15 K, x2 = 0.9 | 788.39 ± 0.12 | 1.18 ± 0.025
303.15 K, x2 = 0 | 801.42 ± 0.12 | 2.234 ± 0.047
303.15 K, x2 = 0.1 | 800.13 ± 0.12 | 2.103 ± 0.045
303.15 K, x2 = 0.2 | 798.65 ± 0.12 | 1.967 ± 0.042
303.15 K, x2 = 0.3 | 797.06 ± 0.12 | 1.777 ± 0.038
303.15 K, x2 = 0.4 | 795.75 ± 0.12 | 1.633 ± 0.035
303.15 K, x2 = 0.501 | 793.66 ± 0.12 | 1.533 ± 0.033
303.15 K, x2 = 0.602 | 791.5 ± 0.12 | 1.397 ± 0.03
303.15 K, x2 = 0.701 | 789.23 ± 0.12 | 1.279 ± 0.027
303.15 K, x2 = 0.801 | 786.82 ± 0.12 | 1.184 ± 0.025
303.15 K, x2 = 0.9 | 784.17 ± 0.13 | 1.072 ± 0.023
308.15 K, x2 = 0 | 797.57 ± 0.12 | 1.978 ± 0.042
308.15 K, x2 = 0.1 | 796.25 ± 0.12 | 1.868 ± 0.04
308.15 K, x2 = 0.2 | 794.74 ± 0.12 | 1.754 ± 0.037
308.15 K, x2 = 0.3 | 793.12 ± 0.12 | 1.591 ± 0.034
308.15 K, x2 = 0.4 | 791.76 ± 0.12 | 1.465 ± 0.031
308.15 K, x2 = 0.501 | 789.63 ± 0.12 | 1.381 ± 0.029
308.15 K, x2 = 0.602 | 787.42 ± 0.12 | 1.262 ± 0.027
308.15 K, x2 = 0.701 | 785.1 ± 0.13 | 1.159 ± 0.025
308.15 K, x2 = 0.801 | 782.64 ± 0.13 | 1.076 ± 0.023
308.15 K, x2 = 0.9 | 779.92 ± 0.13 | 0.977 ± 0.021
313.15 K, x2 = 0 | 793.68 ± 0.12 | 1.756 ± 0.037
313.15 K, x2 = 0.1 | 792.33 ± 0.12 | 1.664 ± 0.035
313.15 K, x2 = 0.2 | 790.79 ± 0.12 | 1.569 ± 0.033
313.15 K, x2 = 0.3 | 789.13 ± 0.12 | 1.427 ± 0.03
313.15 K, x2 = 0.4 | 787.74 ± 0.12 | 1.318 ± 0.028
313.15 K, x2 = 0.501 | 785.57 ± 0.12 | 1.246 ± 0.026
313.15 K, x2 = 0.602 | 783.31 ± 0.13 | 1.142 ± 0.024
313.15 K, x2 = 0.701 | 780.94 ± 0.13 | 1.052 ± 0.022
313.15 K, x2 = 0.801 | 778.41 ± 0.13 | 0.98 ± 0.021
313.15 K, x2 = 0.9 | 775.63 ± 0.13 | 0.892 ± 0.019
318.15 K, x2 = 0 | 789.75 ± 0.12 | 1.564 ± 0.033
318.15 K, x2 = 0.1 | 788.37 ± 0.12 | 1.487 ± 0.032
318.15 K, x2 = 0.2 | 786.8 ± 0.12 | 1.407 ± 0.03
318.15 K, x2 = 0.3 | 785.11 ± 0.12 | 1.283 ± 0.027
318.15 K, x2 = 0.4 | 783.67 ± 0.12 | 1.189 ± 0.025
318.15 K, x2 = 0.501 | 781.46 ± 0.13 | 1.127 ± 0.024
318.15 K, x2 = 0.602 | 779.15 ± 0.13 | 1.037 ± 0.022
318.15 K, x2 = 0.701 | 776.73 ± 0.13 | 0.957 ± 0.02
318.15 K, x2 = 0.801 | 774.14 ± 0.13 | 0.895 ± 0.019
318.15 K, x2 = 0.9 | 771.28 ± 0.13 | 0.815 ± 0.017
323.15 K, x2 = 0 | 785.78 ± 0.12 | 1.397 ± 0.03
323.15 K, x2 = 0.1 | 784.36 ± 0.12 | 1.333 ± 0.028
323.15 K, x2 = 0.2 | 782.76 ± 0.12 | 1.265 ± 0.027
323.15 K, x2 = 0.3 | 781.03 ± 0.13 | 1.158 ± 0.025
323.15 K, x2 = 0.4 | 779.54 ± 0.13 | 1.074 ± 0.023
323.15 K, x2 = 0.501 | 777.29 ± 0.13 | 1.024 ± 0.022
323.15 K, x2 = 0.602 | 774.95 ± 0.13 | 0.943 ± 0.02
323.15 K, x2 = 0.701 | 772.47 ± 0.13 | 0.874 ± 0.019
323.15 K, x2 = 0.801 | 769.82 ± 0.13 | 0.817 ± 0.017
323.15 K, x2 = 0.9 | 766.89 ± 0.13 | 0.748 ± 0.016
328.15 K, x2 = 0 | 781.75 ± 0.12 | 1.252 ± 0.027
328.15 K, x2 = 0.1 | 780.31 ± 0.12 | 1.199 ± 0.025
328.15 K, x2 = 0.2 | 778.67 ± 0.13 | 1.141 ± 0.024
328.15 K, x2 = 0.3 | 776.91 ± 0.13 | 1.047 ± 0.022
328.15 K, x2 = 0.4 | 775.38 ± 0.13 | 0.974 ± 0.021
328.15 K, x2 = 0.501 | 773.09 ± 0.13 | 0.93 ± 0.02
328.15 K, x2 = 0.602 | 770.69 ± 0.13 | 0.86 ± 0.018
328.15 K, x2 = 0.701 | 768.15 ± 0.13 | 0.798 ± 0.017
328.15 K, x2 = 0.801 | 765.44 ± 0.13 | 0.749 ± 0.016
328.15 K, x2 = 0.9 | 762.45 ± 0.13 | 0.686 ± 0.015

CCO [ethanol] + CCCCCO
x1 = 1
Conditions | mass density [kg/m3] | viscosity [mPa·s]
293.15 K | 790.13 ± 0.12 | 1.151 ± 0.012
298.15 K | 785.86 ± 0.13 | 1.069 ± 0.011
303.15 K | 781.56 ± 0.13 | 0.973 ± 0.011
308.15 K | 777.23 ± 0.13 | 0.888 ± 0.01
313.15 K | 772.86 ± 0.13 | 0.813 ± 0.01
318.15 K | 768.44 ± 0.13 | 0.755 ± 0.01
323.15 K | 763.97 ± 0.13 | 0.684 ± 0.009
328.15 K | 759.44 ± 0.13 | 0.63 ± 0.009

CCO [ethanol] + CCCCO
x1 = 1
Conditions | mass density [kg/m3] | viscosity [mPa·s]
293.15 K | 790.13 ± 0.12 | 1.151 ± 0.024
298.15 K | 785.86 ± 0.13 | 1.069 ± 0.023
303.15 K | 781.56 ± 0.13 | 0.973 ± 0.021
308.15 K | 777.23 ± 0.13 | 0.888 ± 0.019
313.15 K | 772.86 ± 0.13 | 0.813 ± 0.017
318.15 K | 768.44 ± 0.13 | 0.755 ± 0.016
323.15 K | 763.97 ± 0.13 | 0.684 ± 0.015
328.15 K | 759.44 ± 0.13 | 0.63 ± 0.013

CCO [ethanol] + CCCO
x1 = 1
Conditions | mass density [kg/m3] | viscosity [mPa·s]
293.15 K | 790.13 ± 0.12 | 1.151 ± 0.012
298.15 K | 785.86 ± 0.13 | 1.069 ± 0.011
303.15 K | 781.56 ± 0.13 | 0.973 ± 0.011
308.15 K | 777.23 ± 0.13 | 0.888 ± 0.01
313.15 K | 772.86 ± 0.13 | 0.813 ± 0.01
318.15 K | 768.44 ± 0.13 | 0.755 ± 0.01
323.15 K | 763.97 ± 0.13 | 0.684 ± 0.009
328.15 K | 759.44 ± 0.13 | 0.63 ± 0.009
